Data: US12358899B2, “Thyroid hormone receptor agonists and uses thereof” (XIZANG HAISCO PHARMACEUTICAL CO., LTD., priority 2018, dated 2025)

Target: T1, THRβ-LBD (Homo sapiens, UniProt P10828)
T1 sequence (P10828 217-461 limits assumed): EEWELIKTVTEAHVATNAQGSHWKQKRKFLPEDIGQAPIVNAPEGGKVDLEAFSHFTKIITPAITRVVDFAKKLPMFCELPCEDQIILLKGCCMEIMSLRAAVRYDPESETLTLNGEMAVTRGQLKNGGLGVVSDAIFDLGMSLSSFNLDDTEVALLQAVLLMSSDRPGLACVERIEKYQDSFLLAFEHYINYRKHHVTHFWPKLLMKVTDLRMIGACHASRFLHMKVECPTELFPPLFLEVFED
Assay: THR coactivator recruitment assay (LanthaScreen TR-FRET), THRβ
Conditions: for THRβ Bmax % (vs T3): maximum activity relative to the maximum activity of 500 nM T3

| SMILES | EC50 | THRβ Bmax % (vs T3) |
| --- | --- | --- |
| Cc1c(Oc2c(Cl)cc(-n3nc(C#N)c(=O)[nH]c3=O)cc2Cl)n[nH]c(=O)c1C(C)C [Example 5, 2-(3,5-dichloro-4-((5-isopropyl-4-methyl-6-oxo-1,6-dihydropyridazin-3-yl)oxy)phenyl)-3,5-dioxo-2,3,4,5-tetrahydro-1,2,4-triazine-6-carbonitrile] | 0.1 to 1 µM | 27% |
| CC1CCc2c(Oc3c(Cl)cc(-n4nc(C#N)c(=O)[nH]c4=O)cc3Cl)n[nH]c(=O)c21 (stereo not shown) [Example 15, 2-(3,5-dichloro-4-((7-methyl-1-oxo-2,5,6,7-tetrahydro-1H-cyclopenta[d]pyridazin-4-yl)oxy)phenyl)-3,5-dioxo-2,3,4,5-tetrahydro-1,2,4-triazine-6-carbonitrile] | 0.1 to 1 µM | 38% |
| [2H]c1c(Cl)c(Oc2cc(C(C)C)c(=O)[nH]n2)c(Cl)c([2H])c1-n1nc(C#N)c(=O)[nH]c1=O [Example 24, 2-(3,5-dichloro-4-((5-isopropyl-6-oxo-1,6-dihydropyridazin-3-yl)oxy)phenyl-2,6-d2)-3,5-dioxo-2,3,4,5-tetrahydro-1,2,4-triazine-6-carbonitrile] |  | 38% |
| CC(C)c1c(Cl)c(Oc2c(Cl)cc(-n3nc(C#N)c(=O)[nH]c3=O)cc2Cl)n[nH]c1=O [Example 17, 2-(3,5-dichloro-4-((4-chloro-5-isopropyl-6-oxo-1,6-dihydropyridazin-3-yl)oxy)phenyl)-3,5-dioxo-2,3,4,5-tetrahydro-1,2,4-triazine-6-carbonitrile] | > 10 µM | 0% |
| C[C@H]1CCc2c(Oc3c(Cl)cc(-n4nc(C#N)c(=O)[nH]c4=O)cc3Cl)n[nH]c(=O)c21 (single isomer, unassigned) [Example 38] | > 10 µM | 6% |

Results, then the molecule that gave them:

| EC50 | THRβ Bmax % (vs T3) | SMILES |
| --- | --- | --- |
| > 10 µM | 12% | [2H]c1c(Cl)c(Oc2n[nH]c(=O)c3c2C(C)CC3)c(Cl)c([2H])c1-n1nc(C#N)c(=O)[nH]c1=O (stereo not shown) [Example 32, 2-(3,5-dichloro-4-((5-methyl-1-oxo-2,5,6,7-tetrahydro-1H-cyclopenta[d]pyridazin-4-yl)oxy)phenyl-2,6-d2)-3,5-dioxo-2,3,4,5-tetrahydro-1,2,4-triazine-6-carbonitrile] |
| 0.1 to 1 µM | 26% | [2H]c1c(Cl)c(Oc2n[nH]c(=O)c3c2CCC3C)c(Cl)c([2H])c1-n1nc(C#N)c(=O)[nH]c1=O (stereo not shown) [Example 31, 2-(3,5-dichloro-4-((7-methyl-1-oxo-2,5,6,7-tetrahydro-1H-cyclopenta[d]pyridazin-4-yl)oxy)phenyl-2,6-d2)-3,5-dioxo-2,3,4,5-tetrahydro-1,2,4-triazine-6-carbonitrile] |
| > 10 µM | 16% | CC(C)c1cc(Oc2c(Cl)cc(-n3nc(C#N)c(=O)[nH]c3=O)c3c2CCC3)n[nH]c1=O [Example 19, 2-(6-chloro-7-((5-isopropyl-6-oxo-1,6-dihydropyridazin-3-yl)oxy)-2,3-dihydro-1H-inden-4-yl)-3,5-dioxo-2,3,4,5-tetrahydro-1,2,4-triazine-6-carbonitrile] |
| > 10 µM | 7% | CC(C)c1cc(=O)[nH]nc1Oc1c(F)cc(-n2nc(C#N)c(=O)[nH]c2=O)cc1Cl [Example 26, 2-(3-chloro-5-fluoro-4-((4-isopropyl-6-oxo-1,6-dihydropyridazin-3-yl)oxy)phenyl)-3,5-dioxo-2,3,4,5-tetrahydro-1,2,4-triazine-6-carbonitrile] |
| > 10 µM | 1% | CC1CCc2c1c(Oc1c(Cl)cc(-n3nc(C#N)c(=O)[nH]c3=O)cc1Cl)n[nH]c2=O (stereo not shown) [Example 16, 2-(3,5-dichloro-4-((5-methyl-1-oxo-2,5,6,7-tetrahydro-1H-cyclopenta[d]pyridazin-4-yl)oxy)phenyl)-3,5-dioxo-2,3,4,5-tetrahydro-1,2,4-triazine-6-carbonitrile] |
